Test results as given in US10822349B2, “Macrocyclic purines for the treatment of viral infections” (JANSSEN SCIENCES IRELAND UNLIMITED COMPANY, priority 2012, dated 2020).

Columns and labels:
human TLR7 = target: T1, human TLR7 (Homo sapiens, UniProt Q9NYK1); experiment: TLR7 cellular reporter assay (HEK293 TLR7-NFκB-luc); format: cell-based; conditions: lowest effective concentration; HEK293 transiently transfected with TLR7 and NFκB-luc; 6 hours incubation
T1 construct: expressed in transfected cells; host or cells: HEK293
T1 sequence (Q9NYK1 27-1049): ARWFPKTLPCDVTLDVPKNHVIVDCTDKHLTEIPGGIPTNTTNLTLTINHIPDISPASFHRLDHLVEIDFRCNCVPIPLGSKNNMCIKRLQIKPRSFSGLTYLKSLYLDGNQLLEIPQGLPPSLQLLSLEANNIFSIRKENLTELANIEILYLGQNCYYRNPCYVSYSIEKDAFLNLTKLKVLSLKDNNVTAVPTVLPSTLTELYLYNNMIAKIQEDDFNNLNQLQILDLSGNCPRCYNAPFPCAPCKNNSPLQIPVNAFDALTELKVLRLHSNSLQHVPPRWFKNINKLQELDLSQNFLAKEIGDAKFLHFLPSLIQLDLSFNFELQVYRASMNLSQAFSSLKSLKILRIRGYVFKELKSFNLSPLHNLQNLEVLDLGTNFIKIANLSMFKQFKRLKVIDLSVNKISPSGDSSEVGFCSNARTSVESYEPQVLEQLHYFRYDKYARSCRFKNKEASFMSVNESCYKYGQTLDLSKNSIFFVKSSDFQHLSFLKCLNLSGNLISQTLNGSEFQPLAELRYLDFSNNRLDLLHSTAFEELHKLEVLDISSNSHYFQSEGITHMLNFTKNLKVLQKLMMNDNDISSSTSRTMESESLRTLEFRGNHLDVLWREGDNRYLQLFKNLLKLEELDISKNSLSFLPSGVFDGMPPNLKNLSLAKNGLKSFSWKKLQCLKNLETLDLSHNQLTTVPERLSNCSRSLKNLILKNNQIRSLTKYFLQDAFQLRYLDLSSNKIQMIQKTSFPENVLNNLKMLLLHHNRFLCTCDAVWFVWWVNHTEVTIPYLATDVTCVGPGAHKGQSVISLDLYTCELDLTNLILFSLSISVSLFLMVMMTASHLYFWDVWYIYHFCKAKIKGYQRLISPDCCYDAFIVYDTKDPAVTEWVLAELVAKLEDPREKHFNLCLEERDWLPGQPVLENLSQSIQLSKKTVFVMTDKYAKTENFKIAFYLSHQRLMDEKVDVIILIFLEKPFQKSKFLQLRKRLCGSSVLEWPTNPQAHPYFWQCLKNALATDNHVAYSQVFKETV
Method: The ability of compounds to activate human TLR7 and TLR8 was assessed in a cellular reporter assay using HEK293 cells transiently transfected with a TLR7 or TLR8 expression vector and NFκB-luc reporter construct. Briefly, HEK293 cells were grown in culture medium (DMEM supplemented with 10% FCS and 2 mM Glutamine). For transfection of cells in 10 cm dishes, cells were detached with Trypsin-EDTA, transfected with a mix of CMV-TLR7 or TLR8 plasmid (750 ng), NFκB-luc plasmid (375 ng) and a transfection reagent and incubated 48 hours at 37° C. in a humidified 5% CO2 atmosphere. Transfected cells were then detached with Trypsin-EDTA, washed in PBS and resuspended in medium to a density of 1.67×10^5 cells/mL. Thirty microliters of cells were then dispensed into each well in 384-well plates, where 10 μL of compound in 4% DMSO was already present. Following 6 hours incubation at 37° C., 5% CO2, the luciferase activity was determined by adding 15 μl of Steady Lite Plus substrate (Perkin Elmer) to each well and readout performed on a ViewLux ultraHTS microplate imager (Perkin Elmer). Dose response curves were generated from measurements performed in quadruplicates. Lowest effective concentrations (LEC) values, defined as the concentration that induces an effect which is at least two fold above the standard deviation of the assay, were determined for each compound.

[1] = tested on: interferon production in human PBMC; experiment: Interferon production in human PBMC, read out on HEK-ISRE-luc reporter cells; format: cell-based; conditions: lowest effective concentration, PBMC supernatant after overnight incubation transferred to HEK-ISRE-luc cells; for PBMC HEK-ISRE-luc (LEC; μM): 24 hours; for minimal effective concentration: Homo sapiens, PBMC, 24 h, read-out: PBMC HEK-ISRE-luc (LEC; μM)
Method: Activation of human TLR7 results in robust production of interferon by plasmacytoid dendritic cells present in human blood. The potential of compounds to induce interferon was evaluated by determination of interferon in the conditioned media from peripheral blood mononuclear cells (PBMC). The presence of interferon in the samples was determined, using an interferon reporter cell line stably expressing an interferon-stimulated responsive elements (ISRE)-luc reporter construct. The ISRE element with sequence GAAACTGAAACT (SEQ ID: 1) is highly responsive to the STAT1-STAT2-IRF9 transcription factor, which becomes activated upon binding of IFN-I to the IFN receptor. Briefly, PBMCs were prepared from buffy coats of at least two donors using a standard Ficoll centrifugation protocol. Isolated PBMCs were resuspended in RPMI medium supplemented with 10% human AB serum and 2×10^5 cells/well were dispensed into 384-well plates containing compounds (70 μL total volume). After overnight incubation of the PBMCs with the compounds, 10 μL of supernatant was transferred to 384-well plates containing 5×10^3 HEK-ISRE-luc cells/well in 30 μL (plated the day before). Following 24 hours of incubation, activation of the ISRE elements was measured by assaying luciferase activity using 40 μL/well Steady Lite Plus substrate (Perkin Elmer) and measured with ViewLux ultraHTS microplate imager (Perkin Elmer). The stimulating activity of each compound on the HEK-ISRE-luc cells was reported as LEC. The LEC in turn indicates the degree of ISRE activation on transfer of a defined amount of PBMC culture medium. Recombinant interferon alfa-2a (Roferon-A) was used as a standard control compound.

| SMILES | HEK293 TLR7-NFκB-luc (LEC; μM) (human TLR7) [µM] | PBMC HEK-ISRE-luc (LEC; μM) [1] [µM] | minimal effective concentration [1] [µM] |
| --- | --- | --- | --- |
| Nc1nc2nc3c1nc(O)n3Cc1cccc(c1)C/C=C\CCO2 [Compound 1] | 0.154 | 0.081 |  |
| Nc1nc2nc3c1nc(O)n3Cc1cccc(c1)CCCCCO2 [Compound 2] | 0.51 |  | 0.22 |
| Nc1nc2nc3c1nc(O)n3Cc1cccc(c1)C/C=C/CCCn1ccnc1-2 [Compound 3] | 1.05 |  | 0.14 |
| Nc1nc2nc3c1nc(O)n3Cc1cccc(c1)CCCCCCn1ccnc1-2 [Compound 4] | 3.27 |  | 0.64 |
| Nc1nc2nc3c1nc(O)n3Cc1cccc(c1)CC(=O)NCCCO2 [Compound 5] | 0.24 |  | 0.044 |
| Nc1nc2nc3c1nc(O)n3Cc1ccc(nc1)OCC(=O)NCCCO2 [Compound 6] | >10 |  | 1.73 |
| Nc1nc2nc3c1nc(O)n3Cc1cccc(c1)C/C=C/CCC(CO)N2 (centres unmarked) [Compound 7] | 0.87 |  | 0.31 |
| Nc1nc2nc3c1nc(O)n3Cc1cccc(c1)OCCCCN2 [Compound 8] | 2.42 |  | 0.68 |
| Nc1nc2nc3c1nc(O)n3Cc1cccc(n1)OCC(=O)NCCCO2 [Compound 9] | 0.30 |  | 0.098 |
| Nc1nc2nc3c1nc(O)n3Cc1cccc(c1)CCCCCC(CO)N2 (centres unmarked) [Compound 10] | 5.26 |  | 0.53 |
| Nc1nc2nc3c1nc(O)n3Cc1cccc(c1)OCCCCO2 [Compound 11] | 0.050 |  | 0.022 |
| Nc1nc2nc3c1nc(O)n3Cc1cccc(c1)OCCOCCO2 [Compound 12] | 0.39 |  | 0.043 |
| Nc1nc2nc3c1nc(O)n3Cc1cccc(c1)OCCOCCN2 [Compound 13] | 14.69 |  | 4.7 |
| Nc1nc2nc3c1nc(O)n3Cc1cccc(c1)OCCCCCN2 [Compound 14] | 1.68 |  | 0.51 |
| Nc1nc2nc3c1nc(O)n3Cc1cccc(c1)C/C=C/CCO2 [Compound 15] | 0.12 |  | 0.016 |
| Nc1nc2nc3c1nc(O)n3Cc1cccc(c1)C/C=C/CCCO2 [Compound 16] | 0.375 |  | 0.11 |
| Nc1nc2nc3c1nc(O)n3Cc1cccc(c1)C/C=C\CCO2 [Compound 17] | 0.067 | 0.013 |  |
| Nc1nc2nc3c1nc(O)n3Cc1cccc(c1)OC/C=C/CCC(CO)N2 (centres unmarked) [Compound 18] | 0.82 |  | 0.056 |
| Nc1nc2nc3c1nc(O)n3Cc1cccc(c1)OCCCCCC(CO)N2 (centres unmarked) [Compound 19] | 2.24 |  | 0.14 |
| Nc1nc2nc3c1nc(O)n3Cc1cccc(c1)OCC/C=C\CO2 [Compound 20] | 0.74 |  | 0.15 |
| Nc1nc2nc3c1nc(O)n3Cc1cccc(c1)OCC/C=C/CO2 [Compound 21] | 0.3 |  | 0.05 |

| SMILES | HEK293 TLR7-NFκB-luc (LEC; μM) (human TLR7) [µM] | PBMC HEK-ISRE-luc (LEC; μM) [1] [µM] | minimal effective concentration [1] [µM] |
| --- | --- | --- | --- |
| Nc1nc2nc3c1nc(O)n3Cc1cccc(c1)OC/C=C\CO2 [Compound 22] | 0.12 |  | 0.054 |
| Nc1nc2nc3c1nc(O)n3Cc1cccc(c1)OC/C=C/CO2 [Compound 23] | 0.043 |  | 0.012 |
| Nc1nc2nc3c1nc(O)n3Cc1cccc(n1)COCCCCO2 [Compound 24] | 1.05 |  | 0.15 |
| Nc1nc2nc3c1nc(O)n3Cc1ccc(nc1)OCC/C=C/CCO2 [Compound 25] | 20.22 |  | 3.61 |
| Nc1nc2nc3c1nc(O)n3Cc1cccc(c1)OC/C=C\CCO2 [Compound 26] | 0.027 |  | 0.093 |
| Nc1nc2nc3c1nc(O)n3Cc1cccc(c1)OC/C=C/CCO2 [Compound 27] | 1.31 |  | 0.11 |
| Nc1nc2nc3c1nc(O)n3Cc1cccc(c1)C/C=C/CCCN2 [Compound 28] | 0.77 |  | 0.26 |
| Nc1nc2nc3c1nc(O)n3Cc1cccc(c1)C/C=C/CCN2 [Compound 29] | 0.81 |  | 0.15 |
| Nc1nc2nc3c1nc(O)n3Cc1ccc(cc1)C/C=C/CCCCO2 [Compound 30] | 0.87 |  | 0.56 |
| Nc1nc2nc3c1nc(O)n3Cc1cccc(c1)CCCCCN2 [Compound 31] | 1.36 |  | 0.263 |
| Nc1nc2nc3c1nc(O)n3CCc1cccc(c1)OC/C=C/CO2 [Compound 32] | 0.92 |  | 0.12 |
| Nc1nc2nc3c1nc(O)n3Cc1cccc(c1)OC/C=C/CCCO2 [Compound 33] | 0.17 |  | 0.11 |
| Nc1nc2nc3c1nc(O)n3Cc1cccc(c1)C/C=C/CCCCO2 [Compound 34] | 9.81 |  | 0.032 |
| Nc1nc2nc3c1nc(O)n3Cc1cccc(=O)n1CCCCN2 [Compound 35] | 1.68 |  | 0.41 |
| Nc1nc2nc3c1nc(O)n3CCc1cccc(c1)C/C=C/CCO2 [Compound 82] | 3.95 |  |  |
| Nc1nc2nc3c1nc(O)n3Cc1ccc(F)c(c1)OC/C=C/CO2 [Compound 87] | 0.034 |  |  |
| Nc1nc2nc3c1nc(O)n3Cc1ccc(F)c(c1)OC/C=C\CO2 [Compound 88] | 0.11 |  |  |
| Nc1nc2nc3c1nc(O)n3Cc1ccc(F)c(c1)OC/C=C\CN2 [Compound 89] | 0.4 |  |  |
| Nc1nc2nc3c1nc(O)n3Cc1ccc(F)c(c1)OC/C=C/CN2 [Compound 90] | 0.063 |  |  |
| Nc1nc2nc3c1nc(O)n3Cc1ccc(F)c(c1)OCCCCO2 [Compound 91] | 0.14 |  |  |
| Nc1nc2nc3c1nc(O)n3Cc1ccc(F)c(c1)OCCCCN2 [Compound 92] | 0.47 |  |  |
